Earlier results as cited in patent US20230038462A1, “TRANSDERMAL PENETRANT FORMULATIONS CONTAINING CANNABIDIOL” (DYVE BIOSCIENCES, INC., priority 2019, published 2023).

C=C(C)[C@@H]1CCC(C)=C[C@H]1c1c(O)cc(CCCCC)cc1O [Cannabidiol]
side effects of long-term use: somnolence, decreased appetite, diarrhea, fatigue, malaise, weakness, and sleeping problems
